ChEMBL document CHEMBL2440061, “Synthesis and pharmacological evaluation of carboxycoumarins as a new antitumor treatment targeting lactate transport in cancer cells” (Bioorg Med Chem, 2013)
pEC50, pIC50: −log10 of the molar value. Values after ≈ are worked out from the molar mass of the structure shown. Active and inactive are the calls of the source. The calls are words filed in the database; no cut-off is given here.

Experiments:
SiHa [1] = assay: Cytotoxicity against human SiHa cells in glucose-containing medium after 72 hrs by MTT assay; format: functional, cell-based
SiHa [2] = assay: Cytotoxicity against human SiHa cells in lactate-containing medium after 72 hrs by MTT assay; format: functional, cell-based
[3] = biological target: T1, Monocarboxylate transporter 4 (Homo sapiens, UniProt O15427); assay: Inhibition of MCT4-mediated [14C]-lactate uptake in human SiHa cells in lactate-containing medium assessed as remaining lactate concentration in culture medium after 24 hrs by liquid scintillation counting; format: cell-based
T1 sequence (O15427 whole entry): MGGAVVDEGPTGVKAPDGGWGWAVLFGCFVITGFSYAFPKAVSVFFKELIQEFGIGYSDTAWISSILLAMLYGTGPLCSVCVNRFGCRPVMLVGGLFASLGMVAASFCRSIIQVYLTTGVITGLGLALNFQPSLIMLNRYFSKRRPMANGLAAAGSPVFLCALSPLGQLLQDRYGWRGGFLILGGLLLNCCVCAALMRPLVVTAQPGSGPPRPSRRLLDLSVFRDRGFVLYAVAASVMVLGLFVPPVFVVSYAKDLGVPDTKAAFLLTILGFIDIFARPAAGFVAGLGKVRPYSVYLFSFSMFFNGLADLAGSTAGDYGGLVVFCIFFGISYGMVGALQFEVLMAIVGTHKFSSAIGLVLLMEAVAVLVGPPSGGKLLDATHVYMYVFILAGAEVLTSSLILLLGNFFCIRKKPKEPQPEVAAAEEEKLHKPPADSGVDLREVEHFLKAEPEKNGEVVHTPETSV

SiHa [4] = assay: Cytotoxicity against human SiHa cells in glucose-containing medium at 10 uM under normoxia condition after 72 hrs by MTT assay; format: functional, cell-based
[5] = biological target: T1, Monocarboxylate transporter 4; settings: siha
Description: Inhibition of MCT4-mediated [14C]-lactate uptake in human SiHa cells in lactate-containing medium assessed as remaining lactate concentration in culture medium after 12 mins by liquid scintillation counting

[6] = biological target: T2, Monocarboxylate transporter 4 (Homo sapiens) (UniProt O15427); assay: Ratio of alpha-cyano-4-hydroxycinnamate IC50 to compound IC50 for MCT4-mediated [14C]-lactate uptake in human SiHa cells in lactate-containing medium assessed as remaining lactate concentration in culture medium after 24 hrs by liquid scintillation counting; format: cell-based
T2 sequence (whole entry): T1 sequence (O15427 whole entry)

SiHa [7] = assay: Cytotoxicity against human SiHa cells in glucose-containing medium at 10 uM under hypoxia condition after 72 hrs by MTT assay; format: functional, cell-based
SiHa [8] = assay: Induction of apoptosis in human SiHa cells in lactate-containing medium assessed as caspase-3 cleavage at 10 uM after 48 hrs by Western blot analysis; format: functional, cell-based
Mus musculus [9] = assay: Toxicity in C57Bl6/J mouse assessed as induction of anticoagulant at 3 mg/kg, ip by prothrombin time test; format: organism-based; parameters: dose 3 mg/kg, route intraperitoneal; settings: in vivo
[10] = Aqueous solubility of the compound in PBS buffer at pH 7.4; format: physicochemical
[11] = Chemical stability of the compound in simulated intestinal fluid assessed as compound remaining after 4 hrs; format: physicochemical; settings: read-out: Stability
[12] = Half life in mouse at 3 mg/kg, ip; format: ADME, organism-based; parameters: dose 3 mg/kg, route intraperitoneal; settings: in vivo
[13] = Metabolic stability in human plasma assessed as compound remaining after 1 hr; format: ADME, cell-free; settings: read-out: Stability
Mus musculus [14] = assay: Toxicity in C57Bl6/J mouse assessed as mortality at 3 mg/kg, ip; format: organism-based; parameters: dose 3 mg/kg, route intraperitoneal; settings: in vivo
[15] = Half life in human hepatocytes; format: ADME, cell-based, Hepatocyte
[16] = Cmax in mouse at 3 mg/kg, ip; format: ADME, organism-based; parameters: dose 3 mg/kg, route intraperitoneal; settings: in vivo
[17] = AUC (infinity) in mouse at 3 mg/kg, ip; format: ADME, organism-based; parameters: time infinity, dose 3 mg/kg, route intraperitoneal; settings: plasma
[18] = Metabolic stability in mouse plasma assessed as compound remaining after 1 hr; format: ADME, cell-free; settings: read-out: Stability
[19] = Tmax in mouse at 3 mg/kg, ip; format: ADME, organism-based; parameters: dose 3 mg/kg, route intraperitoneal; settings: in vivo
[20] = Half life in human liver microsomes; format: ADME, Microsome
[21] = Chemical stability of the compound in simulated gastric fluid assessed as compound remaining after 1 hr; format: physicochemical; settings: read-out: Stability
SiHa [22] = assay: Cytotoxicity against human SiHa cells in glucose-containing medium after 72 hrs by MTT assay presence of pyruvate; format: functional, cell-based
[23] = Half life in mouse liver microsomes; format: ADME, Microsome
SiHa [24] = assay: Cytotoxicity against human SiHa cells in glucose-containing medium after 72 hrs by MTT assay absence of pyruvate; format: functional, cell-based
Mus musculus [25] = assay: Toxicity in C57Bl6/J mouse assessed as induction of hemorrhage at 1.5 mg/kg, ip; format: organism-based; parameters: dose 1.5 mg/kg, route intraperitoneal; settings: in vivo
Mus musculus [26] = assay: Toxicity in C57Bl6/J mouse assessed as mortality at 1.5 mg/kg, ip; format: organism-based; parameters: dose 1.5 mg/kg, route intraperitoneal; settings: in vivo

## Cc1c(C(=O)O)c(=O)oc2cc(OCc3ccccc3)ccc12
SiHa [1]
  Activity: inactive
SiHa [2]
  pEC50: < 4.52
[3]
  pIC50: < 4.52

## O=C(O)c1cc2ccc(OCc3ccccc3)cc2[nH]c1=O
SiHa [1]
  Activity: inactive
SiHa [2]
  pEC50: < 4.52
[3]
  pIC50: < 4.52

## O=C(O)c1cc2ccc(OCc3ccccc3)cc2oc1=O
SiHa [1]
  Activity: inactive
SiHa [2]
  pEC50: 5.04
[3]
  pIC50: 5.72

## Cc1c(C(=O)O)c(=O)oc2cc(O)ccc12
SiHa [1]
  Activity: inactive
SiHa [2]
  pEC50: < 4.52
[3]
  pIC50: < 4.52

## COc1ccc2c(C)c(C(=O)O)c(=O)oc2c1
SiHa [1]
  Activity: inactive
SiHa [2]
  pEC50: < 4.52
[3]
  pIC50: < 4.52

## CN(Cc1ccccc1)c1ccc2cc(C(=O)O)c(=O)oc2c1
SiHa [4]
  Activity: inactive
[5]
  pIC50: 8.00
[6]
  Ratio IC50: 3
SiHa [7]
  Activity: inactive
SiHa [8]
  Activity: Active
Mus musculus [9]
  Activity: Non-toxic
[10]
  solubility: 58 µM (≈ 17.9 µg/mL)
[11]
  remaining at 4 h: 91%
[12]
  half-life: 4.5 h
SiHa [1]
  Activity: inactive
[13]
  remaining at 1 h: 44%
Mus musculus [14]
  Activity: Non-toxic
[15]
  half-life: > 2 h
[16]
  Cmax: 1250 ng/mL
[17]
  AUC(0-inf): 935 ng·h/mL
[18]
  remaining at 1 h: 103%
[19]
  Tmax: 0.167 h
[20]
  half-life: > 1 h
SiHa [2]
  pEC50: 6.66
[21]
  remaining at 1 h: 105%
SiHa [22]
  Activity: inactive
[23]
  half-life: > 1 h
[3]
  pIC50: 7.23
SiHa [24]
  Activity: inactive

## COc1ccc2cc(C(=O)O)c(=O)oc2c1
SiHa [1]
  Activity: inactive
SiHa [2]
  pEC50: 5.01
[3]
  pIC50: 5.64

## CC(C)=CCC/C(C)=C/COc1ccc2cc(C(=O)O)c(=O)oc2c1
SiHa [2]
  Activity: inactive

## O=C(O)c1cc2ccc(N3CCCC3)cc2oc1=O
SiHa [1]
  Activity: inactive
SiHa [2]
  pEC50: 4.84
[3]
  pIC50: < 4.52

## O=C(O)c1cc2ccc(OCn3nnc4ccccc43)cc2oc1=O
SiHa [2]
  Activity: inactive

## O=C(O)c1cc2ccc(OCc3ccccc3)cc2n(Cc2ccccc2)c1=O
SiHa [1]
  Activity: inactive
SiHa [2]
  pEC50: < 4.52
[3]
  pIC50: < 4.52

## CN(C)c1ccc2cc(C(=O)O)c(=O)oc2c1
SiHa [1]
  Activity: inactive
SiHa [2]
  pEC50: 5.54
[3]
  pIC50: 5.85

## O=C(O)c1cc2ccc(OCc3cccc(F)c3)cc2oc1=O
SiHa [2]
  Activity: inactive

## N#C/C(=C\c1ccc(O)cc1)C(=O)O [alpha-CYANO-4-HYDROXYCINNAMIC ACID]
[5]
  pIC50: 4.97
SiHa [1]
  Activity: inactive
SiHa [2]
  pEC50: 4.97
[3]
  pIC50: 4.36

## O=C(O)c1cc2ccc(OCCc3ccccc3)cc2oc1=O
SiHa [1]
  Activity: inactive
SiHa [2]
  pEC50: 5.25
[3]
  pIC50: 5.62

## CC(=O)CC(c1ccccc1)c1c(O)c2ccccc2oc1=O (stereo unspecified) [WARFARIN]
Mus musculus [25]
  Activity: Toxic
Mus musculus [26]
  Activity: Toxic

## Cn1c(=O)c(C(=O)O)cc2ccc(OCc3ccccc3)cc21
SiHa [1]
  Activity: inactive
SiHa [2]
  pEC50: < 4.52
[3]
  pIC50: < 4.52

## O=C(O)c1cc2cc3c4c(c2oc1=O)CCCN4CCC3
[6]
  Ratio IC50: 50
SiHa [1]
  Activity: inactive
SiHa [2]
  pEC50: 5.92
[3]
  pIC50: 6.14

## CCn1c(=O)c(C(=O)O)cc2ccc(OCc3ccccc3)cc21
SiHa [1]
  Activity: inactive
SiHa [2]
  pEC50: < 4.52
[3]
  pIC50: < 4.52

## O=C(O)c1cc2ccc(OC3Cc4ccccc4C3)cc2oc1=O
SiHa [2]
  Activity: inactive

## O=C(O)c1cc2ccc(OCc3ccc(F)cc3)cc2oc1=O
SiHa [1]
  Activity: inactive
SiHa [2]
  pEC50: 5.41
[3]
  pIC50: 5.90

## O=C(O)c1cc2ccc(N3CCOCC3)cc2oc1=O
SiHa [1]
  Activity: inactive
SiHa [2]
  pEC50: 4.76
[3]
  pIC50: 5.10

## O=C(O)c1cc2ccc(OCc3cc(C(F)(F)F)cc(C(F)(F)F)c3)cc2oc1=O
SiHa [2]
  Activity: inactive
